Measured values as given in patent US8715621B2, “Radical polarizing agents for dynamic nuclear polarization” (Massachusetts Institute of Technology, priority 2012, dated 2014).

Experiments:
[1] = Solubility in water / aqueous media; assay type: physicochemical
Stability in air = assay type: physicochemical
[2] = EPR spectrum: line width, aggregation, dimerization; conditions: solution, glass or solid

solubility in water / aqueous media [1]: lack of solubility in aqueous media | air stability (Stability in air): air stable | aggregate formation or radical dimerization [2]: no dimerization in solid or in solution
Substance: 1,3-bisdiphenylene-2-phenylallyl [BDPA]
